Results as given in patent EP0111413A1, “Novel sulfone, process for its preparation, composition containing it and use thereof” (priority 1982, dated 1984).

Key:
Foxtail = assay: Postemergence herbicidal test; assay type: in vivo, Setaria sp.; conditions: Application rate 4.0 lb/A, postemergence spray, rated visually nineteen days later
Source text: (§1) Aluminum planting flats measuring 15.2 x 22.9 x 8.9 cm were filled to a depth of 7.6 cm with loamy sand soil, containing 50 parts per million (ppm) each of the commercial fungicide cis-N(trichloromethyl)thio -4-cyclohexane-l,2-dicarboximide (Captan®) and 17-17-17 fertilizer (percentages of N-P2O5-K2O) on a weight basis). Several rows were impressed across the width of each flat and a variety of seeds of both grass and broadleaf weed species were planted, one species per row. The weed species used are listed below:
(§2) The broad leaf species were seeded first, and the grasses were seeded four days later. Ample seeds of each species were planted to produce 20 to 50 seedlings per row after emergence, depending on the size of each plant.
(§3) Ten days after the grasses were seeded, the emerged seedlings of all species were sprayed with aqueous solutions of the test compounds. The solutions were prepared to such dilutions that a spray rate of 80 gallons per acre (750 liters per hectare) gave from 0.5 to 4.0 pounds of test compound per acre (0.56 to 4.48 kilograms per hectare) as desired for each test. Additional flats not treated at all were used as standards for measuring the extent of weed control in the treated flats. […]

Annual morning glory = assay: Postemergence herbicidal test; assay type: in vivo, Ipomoea purpurea; conditions: Application rate 4.0 lb/A, postemergence spray, rated visually nineteen days later
Source text: as §1, §2, §3

Mustard = assay: Postemergence herbicidal test; assay type: in vivo, Brassica sp.; conditions: Application rate 4.0 lb/A, postemergence spray, rated visually nineteen days later
Source text: as §1, §2, §3

Watergrass = assay: Postemergence herbicidal test; assay type: in vivo, Echinochloa crusgalli; conditions: Application rate 4.0 lb/A, postemergence spray, rated visually nineteen days later
Source text: as §1, §2, §3

Alternaria solani = assay: Minimum Inhibitory Concentration test in nutrient broth (fungal); assay type: cell-based; set-up: key: + = Growth; - = No Growth
Method: (§4) A Minimum Inhibitory Concentration test with bacteria and fungus was performed in nutrient broth. The test compound was added to sterile broth at 0.1% (1000PPM) and diluted sequentially with sterile broth to yield required levels. One drop of an actively-growing 24-hour culture was added to each level and incubated for a period of 24 hours at a temperature of 30°C. At the end of the time period, an aliquot from each tube was placed on nutrient agar and observed for growth.

Wild oat = assay: Postemergence herbicidal test; assay type: in vivo, Avena fatua; conditions: Application rate 4.0 lb/A, postemergence spray, rated visually nineteen days later
Source text: as §1, §2, §3

Pseudomonas aeruginosa = assay: Minimum Inhibitory Concentration test in nutrient broth (bacterial); assay type: cell-based; set-up: key: + = Growth; - = No Growth
Method: as §4

Velvetleaf = assay: Postemergence herbicidal test; assay type: in vivo, Abutilon theophrasti; conditions: Application rate 4.0 lb/A, postemergence spray, rated visually nineteen days later
Source text: as §1, §2, §3

[1] = 62.5 PPM, buffered to pH 6.8, 24 hours at 30°C
[2] = 62.5 PPM, pH 4, 24 hours at 30°C
[3] = 125 PPM, buffered to pH 6.8, 24 hours at 30°C
[4] = 125 PPM, pH 4, 24 hours at 30°C
[5] = 250 PPM, buffered to pH 6.8, 24 hours at 30°C
[6] = 250 PPM, pH 4, 24 hours at 30°C
[7] = 500 PPM, buffered to pH 6.8, 24 hours at 30°C
[8] = 500 PPM, pH 4, 24 hours at 30°C
[9] = 1000 PPM, buffered to pH 6.8, 24 hours at 30°C
[10] = 1000 PPM, pH 4, 24 hours at 30°C

SMILES: CS(=O)(=O)CC(Cl)C#N (centres unmarked) [Compound 1, 3-(methylsulfonyl)-2-chloropropanenitrile]
- Percent Control J (Foxtail): 75%
- Percent Control A (Annual morning glory): 75%
- Percent Control E (Mustard): 40%
- Percent Control L (Watergrass): 65%
- Growth (Alternaria solani; [1]): +
- Growth (Alternaria solani; [2]): +
- Growth (Alternaria solani; [3]): +
- Growth (Alternaria solani; [4]): -
- Growth (Alternaria solani; [5]): -
- Growth (Alternaria solani; [6]): -
- Growth (Alternaria solani; [7]): -
- Growth (Alternaria solani; [8]): -
- Growth (Alternaria solani; [9]): -
- Growth (Alternaria solani; [10]): -
- Percent Control N (Wild oat): 30%
- Growth (Pseudomonas aeruginosa; [1]): -
- Growth (Pseudomonas aeruginosa; [2]): -
- Growth (Pseudomonas aeruginosa; [3]): -
- Growth (Pseudomonas aeruginosa; [4]): -
- Growth (Pseudomonas aeruginosa; [5]): -
- Growth (Pseudomonas aeruginosa; [6]): -
- Growth (Pseudomonas aeruginosa; [7]): -
- Growth (Pseudomonas aeruginosa; [8]): -
- Growth (Pseudomonas aeruginosa; [9]): -
- Growth (Pseudomonas aeruginosa; [10]): -
- Percent Control D (Velvetleaf): 75%
